{"source": "paper PMC6362252", "about": "“A cell-free platform for the prenylation of natural products and application to cannabinoid production” (Nature Communications, 2019)", "key": {"NphB": {"target": "NphB (Streptomyces sp. CL190, UniProt Q4R2T2, A232S/Y288A)", "conditions": "M30; otherwise same"}, "[1]": {"target": "T1, cannabidiolic acid synthase (CBDAS); CBDA synthase (Cannabis sativa, UniProt A6P6V9)", "T1 construct": "native signal peptide removed, starts at residue 28 (NPREN...), pPICZalpha, secreted by Pichia pastoris X33, concentrated culture medium (not purified)", "assay": "HPLC of product CBDA", "type": "biochemical", "conditions": "concentrated expression medium, 25 µM FAD, 5 mM MgCl2, 5 mM KCl, 50 mM Hepes pH 7.0, 30 °C, nonane overlay"}}, "data": [{"smiles": "CCCCCc1cc(O)cc(O)c1C(=O)O", "note": "[olivetolic acid]", "values": [{"measurement": "Km", "setting": "NphB", "result": "200 ± 40", "unit": "µM"}]}, {"smiles": "CCCCCc1cc(O)c(C/C=C(\\C)CCC=C(C)C)c(O)c1C(=O)O", "note": "[cannabigerolic acid]", "values": [{"measurement": "HPLC of product CBDA", "setting": "[1]", "result": "we employed CBDA synthase to convert CBGA into CBDA and CBGVA into CBDVA"}]}]}
